Tests used:
MCF7 = experiment: Antiproliferative MTT assay; format: cell-based, human; details: 30 μM pure natural product, 72 h
Description: (§1) For the determination of the antiproliferative properties of the prepared extract and selected alkaloids (isopteropodine, mitraphylline, and uncarine D), an MTT assay was applied on our […] cell panel (see Table S4). […] All were maintained in a minimal essential medium completed with 10% fetal bovine serum, 1% non-essential amino acids, and 1% penicillin–streptomycin at 37 °C in a humidified atmosphere containing 5% CO2. All cell lines were purchased from the European Collection of Cell Cultures (Salisbury, UK), except for SiHa and C33A, which were from the American Tissue Culture Collection, LGC Standards GmbH (Wesel, Germany). Cell culture media and supplements were obtained from Lonza Group Ltd. (Basel, Switzerland). Cells were seeded into 96-well plates (C33A 10,000/well, all others 5000/well); after overnight incubation, the test substances were added and incubated for another 72 h under cell-culturing conditions. Uncaria tomentosa extract and the alkaloids were tested in the 1–90 μg/mL and 1–30 μM ranges, respectively. Finally, 20 μL of 5 mg/mL MTT solution was added to each well and incubated for 4 h; the medium was discarded, and the precipitated formazan crystals were dissolved in DMSO for 60 min with shaking. The absorbance was determined using a microplate reader (SPECTROstar Nano, BMG Labtech GmbH). Two independent experiments were performed with five parallels for each condition. Cisplatin, a clinically used anticancer agent (Ebewe GmbH, Unterach, Austria), was included as a reference compound. Calculations were conducted using the GraphPad Prism 10.0 software (GraphPad Software Inc., San Diego, CA, USA).
(§2) Table S4 – Antiproliferative properties of Uncaria tomentosa extract, three natural products (isopteropodine, mitraphylline, and uncarine D) and the
(§3) reference agent cisplatin.
(§4) Cell line Uncaria tomentosa isopteropodine mitraphylline uncarine D [95% confidence
(§5) 1: The highest applied concentration was 90 μg/mL and 30 μM for the extract and the pure natural products, respectively.
(§6) 2: Inhibitions less than 20% compared to the untreated control were regarded as negligible and were not given numerically.

SiHa = experiment: Antiproliferative MTT assay; format: cell-based, human; details: 30 μM pure natural product, 72 h
Description: as §1, §2, §3, §4, §5, §6

T47D = experiment: Antiproliferative MTT assay; format: cell-based, human; details: 30 μM pure natural product, 72 h
Description: as §1, §2, §3, §4, §5, §6

C33A = experiment: Antiproliferative MTT assay; format: cell-based, human; details: 30 μM pure natural product, 72 h
Description: as §1, §2, §3, §4, §5, §6

HeLa = experiment: Antiproliferative MTT assay; format: cell-based, human; details: 30 μM pure natural product, 72 h
Description: as §1, §2, §3, §4, §5, §6

HEK293-Mock-B = experiment: Antiproliferative MTT assay; format: cell-based, human; details: 30 μM pure natural product, 72 h
Description: as §1, §2, §3, §4, §5, §6

A2780 = experiment: Antiproliferative MTT assay; format: cell-based, human; details: 30 μM pure natural product, 72 h
Description: as §1, §2, §3, §4, §5, §6

HEK293-Mock = experiment: Antiproliferative MTT assay; format: cell-based, human; details: 30 μM pure natural product, 72 h
Description: as §1, §2, §3, §4, §5, §6

MDA-MB-231 = experiment: Antiproliferative MTT assay; format: cell-based, human; details: 30 μM pure natural product, 72 h
Description: as §1, §2, §3, §4, §5, §6

HEK293-MDR1 = experiment: Antiproliferative MTT assay; format: cell-based, human; details: 30 μM pure natural product, 72 h
Description: as §1, with “Two independent experiments were performed with five parallels for each condition. Cisplatin, a clinically used anticancer agent (Ebewe GmbH, Unterach, Austria), was included as a reference compound. Calculations were conducted using the GraphPad Prism 10.0 software (GraphPad Software Inc., San Diego, CA, USA).” left out

[1] = test system: pregnane X receptor (PXR); details: cited from earlier work
NIH/3T3 = experiment: Antiproliferative MTT assay; format: cell-based, murine; details: 30 μM pure natural product, 72 h
Description: as §1, §2, §3, §4, §5, §6

COC(=O)C1=CO[C@@H](C)[C@H]2CN3CC[C@]4(C(=O)Nc5ccccc54)[C@@H]3C[C@H]12 [mitraphylline]
Cell growth inhibition at the highest concentration (% ± SEM) (MCF7): < 20% | Cell growth inhibition at the highest concentration (% ± SEM) (SiHa): 26.22 ± 1.12% | Cell growth inhibition at the highest concentration (% ± SEM) (T47D): < 20% | Cell growth inhibition at the highest concentration (% ± SEM) (C33A): < 20% | Cell growth inhibition at the highest concentration (% ± SEM) (HeLa): < 20% | Cell growth inhibition at the highest concentration (% ± SEM) (HEK293-Mock-B): < 20% | Cell growth inhibition at the highest concentration (% ± SEM) (A2780): < 20% | Cell growth inhibition at the highest concentration (% ± SEM) (HEK293-Mock): < 20% | Cell growth inhibition at the highest concentration (% ± SEM) (MDA-MB-231): < 20% | Cell growth inhibition at the highest concentration (% ± SEM) (HEK293-MDR1): < 20% | PXR activation [1]: PXR activators | Cell growth inhibition at the highest concentration (% ± SEM) (NIH/3T3): < 20%

COC(=O)C1=CO[C@@H](C)[C@@H]2CN3CC[C@@]4(C(=O)Nc5ccccc54)[C@@H]3C[C@H]12 [isopteropodine]
Cell growth inhibition at the highest concentration (% ± SEM) (MCF7): < 20% | Cell growth inhibition at the highest concentration (% ± SEM) (SiHa): 27.38 ± 2.72% | Cell growth inhibition at the highest concentration (% ± SEM) (T47D): < 20% | Cell growth inhibition at the highest concentration (% ± SEM) (C33A): < 20% | Cell growth inhibition at the highest concentration (% ± SEM) (HeLa): < 20% | Cell growth inhibition at the highest concentration (% ± SEM) (HEK293-Mock-B): < 20% | Cell growth inhibition at the highest concentration (% ± SEM) (A2780): < 20% | Cell growth inhibition at the highest concentration (% ± SEM) (HEK293-Mock): < 20% | Cell growth inhibition at the highest concentration (% ± SEM) (MDA-MB-231): < 20% | Cell growth inhibition at the highest concentration (% ± SEM) (HEK293-MDR1): < 20% | PXR activation [1]: PXR activators | Cell growth inhibition at the highest concentration (% ± SEM) (NIH/3T3): < 20%
